From article PMC10112938 (Hypertension (Dallas, Tex. : 1979), 2023)

Assays:
[1] = target: T1, adenosine A2B receptor (Homo sapiens, UniProt P29275); assay: HTRF […]', […]'-cAMP assay in HEK293 cells expressing human A2B receptors; type: cell-based
T1 sequence (P29275 1-332): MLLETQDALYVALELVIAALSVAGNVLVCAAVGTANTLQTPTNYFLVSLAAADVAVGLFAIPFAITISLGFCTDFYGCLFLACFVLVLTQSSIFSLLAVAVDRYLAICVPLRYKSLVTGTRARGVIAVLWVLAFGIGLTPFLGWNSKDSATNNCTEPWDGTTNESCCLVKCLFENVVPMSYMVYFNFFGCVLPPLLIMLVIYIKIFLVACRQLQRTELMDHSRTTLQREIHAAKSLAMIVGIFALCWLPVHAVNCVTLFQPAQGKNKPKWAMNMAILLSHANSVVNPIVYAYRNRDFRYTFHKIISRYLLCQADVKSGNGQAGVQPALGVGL

[2] = target: T1, adenosine A2B receptor; assay: as above; type: cell-based; remark: listed apart in the source

| Structure (SMILES) | HTRF 3',5'-cAMP assay in HEK293 cells expressing human A2B receptors; antagonism [1] [µmol/L] | HTRF 3',5'-cAMP assay in HEK293 cells expressing human A2B receptors; response a [2] [µmol/L] |
| --- | --- | --- |
| CCCn1c(=O)c2[nH]c(-c3ccc(OCC(=O)Nc4ccc(C#N)cc4)cc3)nc2n(CCC)c1=O [MRS 1754] | 1 |  |
| O=c1[nH]cnc2c1ncn2[C@@H]1O[C@H](CO)[C@@H](O)[C@H]1O [inosine] |  | 3 to 10 |
